Here are results for five molecules from patent publication US20260272854A1, “PHARMACEUTICAL AGENT, MEDICINAL SOLUTION FOR CLEANING PULMONARY ALVEOLI, AND NEBULIZER” (priority 2019, published 2026).

The nature of data set [1]: Surface tension of a hanging droplet, Young-Laplace method (curve fitting). The format is physicochemical. Particulars: for surface tension in 0.3 mg/ml bovine lung surfactant: 1 mM of polyamine, 10 seconds after production of hanging droplet; for surface tension, polyamine alone: 0-10000 msec; for surface tension reduction effect, polyamine alone: without surfactant. The procedure:
Surface tension was measured by the Young-Laplace method (curve fitting) using a contact angle meter (B100, manufactured by Asumi Giken, Limited), on a droplet formed at the tip of a 20-gauge straight needle.
Tensiometer: contact angle meter (B100, manufactured by Asumi Giken, Limited)
Surface tension measurement method: Young-Laplace method (curve fitting)
Hanging droplet production method: a maximum size of droplet not to drop was produced at the tip of a 20-gauge straight needle (an autodispenser was used)
Imaging of hanging droplet: imaging was performed using a CCD camera
Bovine lung surfactant: a commercially available bovine lung extract artificial surfactant (Surfacten (trade name), manufactured by Mitsubishi Tanabe Pharma Corporation) was adjusted to a concentration of 30 mg/ml using physiological saline according to the package insert. […] In the drawings, the formulated surfactant solution is indicated by “30 mg/ml surf.”
10-fold diluted bovine lung surfactant: a commercially available bovine lung extract artificial surfactant (Surfacten (trade name), manufactured by Mitsubishi Tanabe Pharma Corporation) was adjusted to a concentration of 3 mg/ml using physiological saline. In the drawings, the formulated surfactant solution is indicated by “3 mg/ml surf.”
100-fold diluted bovine lung surfactant: a commercially available bovine lung extract artificial surfactant (Surfacten (trade name), manufactured by Mitsubishi Tanabe Pharma Corporation) was adjusted to a concentration of 0.3 mg/ml using physiological saline. Pulmonary surfactant was diluted with physiological saline, i.e., the resultant solution mimics the state of surfactant in a lung affected by ARDS. In the drawings, the formulated surfactant solution is indicated by “100-fold diluted bovine lung surfactant,” “0.3-mg/ml bovine lung surfactant,” “0.3 mg/ml surf,” or “ 1/100 Surf.”
1000-fold diluted bovine lung surfactant: a commercially available bovine lung extract artificial surfactant (Surfacten (trade name), manufactured by Mitsubishi Tanabe Pharma Corporation) was adjusted to a concentration of 0.03 mg/ml using physiological saline. In the drawings, the formulated surfactant solution is indicated by “0.03 mg/ml surf.”
Polyamine-containing 100-fold diluted bovine lung surfactant:
The solution was formulated using a commercially available polyamine chloride. […]

Data set [2] relates to ARDS model. The data set is described as follows: Dynamic lung compliance after pulmonary alveolar washing, ventilated ARDS model rat. The note with it: for lung compliance after pulmonary alveolar washing: 20 ml/kg, 5 times within 2 minutes; for time it took to recover to 0.9 (lung compliance before washing set as 1.0): average. It is filed as in vivo. The procedure: When the respiratory and circulatory dynamics of the rat were stable under artificial ventilation, an injection/suction operation using 20 ml/kg of a pulmonary alveolar washing solution (physiological saline) through the tracheal cannula was conducted […] consecutively within 2 minutes. […] Thus, an ARDS model whose pulmonary alveoli were washed with physiological saline was produced. The pulmonary alveolar washing operation means production of a respiratory distress syndrome (ARDS) model having decreased lung compliance.
The above ventilation was conducted by inverse ratio ventilation without using PEEP. The ventilation was conducted using ambient air (inhaled oxygen concentration FiO2: 0.21) without oxygen administration. The intra-airway pressure and the partial pressure of oxygen in the arterial blood (PaO2) were measured over time. Influence of the polyamines was analyzed, where dynamic lung compliance (=a tidal volume/a change in intra-airway pressure) (expression 1) was used as a measure of the distensibility of the lung, and PaO2/FiO2 (P/F ratio)<300 was used as a criterion for gas exchange dysfunction.
When the respiratory and circulatory dynamics of the rat were stable under artificial ventilation, 20 ml/kg of a pulmonary alveolar washing solution (physiological saline) was injected/suctioned consecutively 5 times within 2 minutes through the tracheal cannula. […] Thus, an ARDS model whose pulmonary alveoli were washed with physiological saline was produced.
When the respiratory and circulatory dynamics of the rat were stable under artificial ventilation, 20 ml/kg of a pulmonary alveolar washing solution (physiological saline containing 0.5 mM of Spm) was injected/suctioned consecutively 5 times within 2 minutes through the tracheal cannula. […] Thus, an ARDS model whose pulmonary alveoli were washed with 0.5 mM of Spm was produced.
(§1) The above ventilation was conducted by inverse ratio ventilation without using PEEP. The ventilation was conducted using ambient air (inhaled oxygen concentration FiO2: 0.21) without oxygen administration. The intra-airway pressure and the partial pressure of oxygen in the arterial blood (PaO2) were measured over time. Influence of the polyamine was analyzed, where dynamic lung compliance was used as a measure of the distensibility of the lung, and the P/F ratio<300 was used as a criterion for gas exchange dysfunction.
When the respiratory and circulatory dynamics of the rat were stable under artificial ventilation, 20 ml/kg of a pulmonary alveolar washing solution (physiological saline containing 1 mM of Spm) was injected/suctioned consecutively 5 times within 2 minutes through the tracheal cannula. […] Thus, an ARDS model whose pulmonary alveoli were washed with 1 mM of Spm was produced.
When the respiratory and circulatory dynamics of the rat were stable under artificial ventilation, 20 ml/kg of a pulmonary alveolar washing solution (0.3 mg/ml of a bovine lung extract artificial surfactant; the bovine lung extract artificial surfactant was formulated by dissolving Surfacten (trade name), manufactured by Mitsubishi Tanabe Pharma Corporation, in physiological saline to a concentration of 0.3 mg/ml, which is 1/100 of the concentration that is normally for administration to a preterm infant) was injected/suctioned consecutively 5 times within 2 minutes through the tracheal cannula. […] Note that it was confirmed that no polyamines are detected in the bovine lung extract artificial surfactant. […]

The subject of data set [3] is ARDS model. The data set is described as follows: Gas exchange dysfunction occurrence rate (P/F ratio<300) after pulmonary alveolar washing. The format is in vivo, rat. How it is done: as §1, with “Ventilation” for “The above ventilation”, “dysfunction. […] Influence of Spm administered to pulmonary alveoli on the rate of occurrence of gas exchange dysfunction was analyzed, where the P/F ratio<300 was used as a criterion for gas exchange dysfunction. […] Cases (death) that death occurred before the measurement times, i.e., arterial blood sampling was not conducted, were counted as the case of occurrence of gas exchange dysfunction.” for “dysfunction.”

For data set [4], the system named is lung affected by ARDS. The note with it: transairway administration of 5 mM of Spm, 20 ml/kg, 5 times, after first washing with physiological saline.
Description: Specifically, influence of transairway administration of 5 mM of Spm to an ARDS model animal on lung compliance was analyzed.
A tracheal cannula was inserted into a rat under general anesthesia, and then euthanized. Immediately after that, artificial ventilation was conducted for 30 seconds, and lung compliance before washing that is calculated based on intra-airway pressure was set as 1.0 (“before washing” on the left slide of FIG. 10). Following this, a lung affected by ARDS was produced. Specifically, an injection/suction operation was conducted 5 times consecutively within 2 minutes using 20 ml/kg of physiological saline through the tracheal cannula. After the washing solution remaining in the tracheal cannula was suctioned out, artificial ventilation was conducted for 30 seconds, and the lung compliance of the lung affected by ARDS was calculated and compared with that of the normal lung (“first pulmonary alveolar washing” at the center of FIG. 10). […] After the washing solution remaining in the tracheal cannula was suctioned out, artificial ventilation was conducted for 30 seconds, and the lung compliance calculated based on intra-airway pressure (“second pulmonary alveolar washing” (open column) on the right side of FIG. 10) was compared with that of the lung affected by ARDS. […]
In data set [5] the test system is lung field. Particulars: rat d: washed with physiological saline, then physiological saline containing 5 mM of Spm; applied pressure 20 cm H2O.
Description: Plain X-ray imaging and X-ray CT imaging were performed, with an air pressure (0 and 20 cm H2O) exerted through a tracheal cannula, on rats that were euthanized after pulmonary alveolar washing or rats that were subjected to pulmonary alveolar washing immediately after euthanization.
A rat a was a control that was not subjected to pulmonary alveolar washing. Specifically, a tracheal cannula was inserted into a rat under general anesthesia, and the rat was euthanized without pulmonary alveolar washing.
A rat b was subjected to pulmonary alveolar washing with physiological saline containing 1 mM of Spm. Specifically, a tracheal cannula was inserted into a rat under general anesthesia, and after the rat was euthanized, 20 ml/kg of a pulmonary alveolar washing solution (physiological saline containing 1 mM of Spm) was injected/suctioned consecutively 5 times within 2 minutes through the tracheal cannula, and the washing solution remaining in the trachea was suctioned out.
A rat c was subjected to pulmonary alveolar washing with physiological saline. Specifically, a tracheal cannula was inserted into a rat under general anesthesia. […]

SMILES strings stand for the structures.

Turning to `CC(=O)NCCCNCCCCN` [N1-AcSpd, N1-acetylspermidine], in data set [1], the “surface tension in 0.3 mg/ml bovine lung surfactant” value is given as “reduction in surface tension” and the “surface tension reduction effect, polyamine alone” value is “does not have the surface tension reduction effect”. Also, the “surface tension, polyamine alone” value in data set [1] (1 mM without surfactant) worked out at 63 mN/m.

On to `NCCCCN` [Put, putrescine], for which the “surface tension reduction effect in diluted surfactant environment” value in data set [1] (Put-containing 0.3 mg/ml bovine lung surfactant, 60 seconds after formation of hanging droplet) is listed as “observed on several tens of seconds after formation of a hanging droplet”. In data set [1], the “surface tension reduction effect, polyamine alone” value is “does not have the surface tension reduction effect”.

With `NCCCCNCCCN` [Spd, spermidine], the “surface tension reduction effect in diluted surfactant environment” value in data set [1] (Spd-containing 0.3 mg/ml bovine lung surfactant) is “has the surface tension reduction effect”. Further, in data set [1], the “surface tension reduction effect, polyamine alone” value is listed as “does not have the surface tension reduction effect”.

In the case of `NCCCNCCCCNCCCN` [Spm, spermine], the “lung compliance after pulmonary alveolar washing” value in data set [2] (physiological saline containing 0.5 mM of Spm) and in data set [2] (physiological saline containing 1 mM of Spm) was “lung compliance subsequently recovered” in each case. Besides, the “effect of improving lung compliance, 1 mM versus 0.5 mM of Spm” value in data set [2] (until 60 minutes after washing) is “higher for 1 mM of Spm”. The “time it took to recover to 0.9 (lung compliance before washing set as 1.0)” value was 60 min in data set [2] (washing with 0.5 mM of Spm) and 15 min in data set [2] (washing with 1 mM of Spm). For the same molecule, the “gas exchange dysfunction occurrence rate” value in data set [3] (20 minutes after washing, 1 mM of Spm) is “lower than the others”; in data set [3] (1 hour after washing, Spm-containing physiological saline (0.5 and 1 mM) compared to physiological saline), “significantly decreased”. Besides, the “surface tension, polyamine alone” value in data set [1] (0.5 mM of Spm without surfactant) is recorded as 64 mN/m. The “surface tension of 0.3 mg/ml surf” value in data set [1] (presence of 0.5, 1 and 2 mM of Spm) is “reduced surface tension”. In addition, the “surface tension reduction effect, polyamine alone” value in data set [1] is on record as “does not have such a surface tension reduction effect”. The “lung compliance after second pulmonary alveolar washing” value in data set [4] is “improved the lung compliance”. For the same molecule, the “CT images of lung field” value in data set [5] is given as “no wide range of infiltrative shadow was observed”. The “X-ray images of lung field” value in data set [5] is “the cardiac shadow became clear”.

With `NCCCCCCN` [diaminohexane], in data set [1], the “surface tension in 0.3 mg/ml bovine lung surfactant” value was “reduction in surface tension” and the “surface tension reduction effect, polyamine alone” value is recorded as “does not have the surface tension reduction effect”. Further, the “surface tension, polyamine alone” value in data set [1] (1 mM without surfactant) worked out at 62 mN/m.
